ChEMBL document CHEMBL1159368, “Phenolic compounds from Nymphaea odorata” (J Nat Prod, 2003)
Converted amounts (≈) assume the structure as drawn.

assay: Inhibition of Saccharomyces cerevisiae FAS

Point of comparison: `C[C@@H]1O[C@@H](Oc2c(-c3ccc(O)c(O)c3)oc3cc(O)cc(O)c3c2=O)[C@H](O)[C@H](O)[C@H]1O` [QUERCITRIN], IC50 50 mg/L (≈ 112 µM). Against it:
- C/C=C/C/C=C/CCC(=O)[C@H]1O[C@H]1C(N)=O [CERULENIN] — 260-fold lower, 0.19 mg/L (≈ 0.851 µM)
- C[C@@H]1O[C@@H](Oc2c(-c3ccc(O)cc3)oc3cc(O)cc(O)c3c2=O)[C@H](O)[C@H](O)[C@H]1O [AFZELIN] — within 1.5-fold, 45 mg/L (≈ 104 µM)
- O=c1c(O[C@@H]2O[C@H](CO)[C@H](O)[C@H](O)[C@H]2O)c(-c2cc(O)c(O)c(O)c2)oc2cc(O)cc(O)c12 — 2-fold lower, 25 mg/L (≈ 52 µM)
